Assay results: ChEMBL document CHEMBL3286158, “Novel pyridyl- or isoquinolinyl-substituted indolines and indoles as potent and selective aldosterone synthase inhibitors” (J Med Chem, 2014)

Experiments:
[1] = Half life in human liver microsomes at 1 uM by LC-MS/MS analysis
[2] = biological target: T1, Cytochrome P450 11B2, mitochondrial (Homo sapiens, UniProt P19099); assay: Inhibition of human CYP11B2 expressed in hamster V79MZh cells using deoxycorticosterone as substrate at 500 nM; type: cell-based
T1 sequence (P19099 whole entry): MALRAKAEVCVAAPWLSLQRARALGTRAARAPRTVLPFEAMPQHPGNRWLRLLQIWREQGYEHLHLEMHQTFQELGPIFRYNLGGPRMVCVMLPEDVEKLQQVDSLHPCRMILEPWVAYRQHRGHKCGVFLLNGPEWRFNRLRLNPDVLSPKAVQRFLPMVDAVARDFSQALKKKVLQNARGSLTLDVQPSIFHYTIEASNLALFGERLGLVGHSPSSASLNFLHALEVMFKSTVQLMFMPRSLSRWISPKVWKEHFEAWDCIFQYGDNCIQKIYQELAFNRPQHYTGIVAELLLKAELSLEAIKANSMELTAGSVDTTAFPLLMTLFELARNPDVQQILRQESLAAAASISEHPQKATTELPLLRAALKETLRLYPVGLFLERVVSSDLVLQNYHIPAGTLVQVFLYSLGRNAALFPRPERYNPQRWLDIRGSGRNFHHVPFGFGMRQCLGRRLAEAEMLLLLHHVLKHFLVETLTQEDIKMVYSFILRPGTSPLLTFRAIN

CYP17 = biological target: T2, CYP17 (Homo sapiens, UniProt P05093); assay: Inhibition of human CYP17 expressed in Escherichia coli co-expressing NADPH-P450 reductase at 2 uM using progesterone as substrate; details: probe progesterone
T2 sequence (P05093 whole entry): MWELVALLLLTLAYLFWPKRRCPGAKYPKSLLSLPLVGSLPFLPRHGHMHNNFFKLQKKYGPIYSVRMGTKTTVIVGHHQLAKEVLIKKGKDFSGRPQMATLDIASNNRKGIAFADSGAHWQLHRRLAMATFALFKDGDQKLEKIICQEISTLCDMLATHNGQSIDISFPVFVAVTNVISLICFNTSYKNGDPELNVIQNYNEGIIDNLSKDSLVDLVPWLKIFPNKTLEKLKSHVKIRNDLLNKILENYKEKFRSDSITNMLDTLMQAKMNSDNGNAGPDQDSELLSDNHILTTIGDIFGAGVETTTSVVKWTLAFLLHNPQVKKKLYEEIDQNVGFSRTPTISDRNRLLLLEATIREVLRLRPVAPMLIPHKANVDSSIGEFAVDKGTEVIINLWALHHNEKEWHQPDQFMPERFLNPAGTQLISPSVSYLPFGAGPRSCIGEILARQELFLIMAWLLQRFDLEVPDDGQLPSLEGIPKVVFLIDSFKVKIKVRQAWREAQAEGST

CYP19 = biological target: T3, CYP19 (Homo sapiens, UniProt P11511); assay: Inhibition of CYP19 in human placental microsomes at 500 nM using [1beta-3H]androstenedione as substrate; set-up: species or system Placenta; details: probe [1beta-3H]androstenedione
T3 sequence (P11511 whole entry): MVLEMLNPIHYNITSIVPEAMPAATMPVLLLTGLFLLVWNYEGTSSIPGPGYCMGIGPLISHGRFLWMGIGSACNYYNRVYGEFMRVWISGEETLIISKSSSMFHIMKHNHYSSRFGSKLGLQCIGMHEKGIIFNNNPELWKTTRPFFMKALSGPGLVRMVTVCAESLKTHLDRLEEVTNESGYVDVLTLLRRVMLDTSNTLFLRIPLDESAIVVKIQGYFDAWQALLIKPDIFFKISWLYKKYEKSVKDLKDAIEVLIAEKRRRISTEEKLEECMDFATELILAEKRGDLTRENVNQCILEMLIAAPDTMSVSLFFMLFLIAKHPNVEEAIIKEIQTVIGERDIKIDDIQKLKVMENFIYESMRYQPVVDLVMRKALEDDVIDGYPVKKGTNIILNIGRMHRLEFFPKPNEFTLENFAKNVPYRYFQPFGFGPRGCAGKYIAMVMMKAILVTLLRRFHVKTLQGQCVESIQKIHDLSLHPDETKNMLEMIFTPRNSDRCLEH

CYP11B1 = biological target: T4, CYP11B1 (Homo sapiens, UniProt P15538); assay: Inhibition of human CYP11B1 expressed in hamster V79MZh cells using deoxycorticosterone as substrate at 500 nM; type: cell-based; details: hamster V79MZh cells expressing human CYP11B1, probe deoxycorticosterone
T4 sequence (P15538 whole entry): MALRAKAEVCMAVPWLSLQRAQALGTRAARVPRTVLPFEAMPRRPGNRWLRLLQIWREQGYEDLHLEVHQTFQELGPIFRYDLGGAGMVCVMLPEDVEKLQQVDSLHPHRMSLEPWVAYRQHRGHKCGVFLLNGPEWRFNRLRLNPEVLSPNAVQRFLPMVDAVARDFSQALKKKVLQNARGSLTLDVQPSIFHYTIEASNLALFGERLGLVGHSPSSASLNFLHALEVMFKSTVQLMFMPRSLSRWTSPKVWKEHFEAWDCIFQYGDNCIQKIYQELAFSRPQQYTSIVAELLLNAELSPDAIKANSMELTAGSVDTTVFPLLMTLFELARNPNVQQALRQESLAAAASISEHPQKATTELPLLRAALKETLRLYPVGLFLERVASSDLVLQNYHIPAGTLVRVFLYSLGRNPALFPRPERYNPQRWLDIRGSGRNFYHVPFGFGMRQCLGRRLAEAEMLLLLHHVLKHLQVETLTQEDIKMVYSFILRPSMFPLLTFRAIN

[3] = biological target: T1, Cytochrome P450 11B2, mitochondrial
[4] = biological target: T5, Cytochrome P450 11B1, mitochondrial (Homo sapiens, UniProt P15538)
T5 sequence (P15538 whole entry): T4 sequence (P15538 whole entry)

Cytochrome P450 2C19 = Cytochrome P450 2C19 (Homo sapiens, UniProt P33261); assay: Inhibition of CYP2C19 using recombinant human CYP enzyme at a single time point by LC-MS/MS analysis
Chain of Cytochrome P450 2C19 (P33261 whole entry): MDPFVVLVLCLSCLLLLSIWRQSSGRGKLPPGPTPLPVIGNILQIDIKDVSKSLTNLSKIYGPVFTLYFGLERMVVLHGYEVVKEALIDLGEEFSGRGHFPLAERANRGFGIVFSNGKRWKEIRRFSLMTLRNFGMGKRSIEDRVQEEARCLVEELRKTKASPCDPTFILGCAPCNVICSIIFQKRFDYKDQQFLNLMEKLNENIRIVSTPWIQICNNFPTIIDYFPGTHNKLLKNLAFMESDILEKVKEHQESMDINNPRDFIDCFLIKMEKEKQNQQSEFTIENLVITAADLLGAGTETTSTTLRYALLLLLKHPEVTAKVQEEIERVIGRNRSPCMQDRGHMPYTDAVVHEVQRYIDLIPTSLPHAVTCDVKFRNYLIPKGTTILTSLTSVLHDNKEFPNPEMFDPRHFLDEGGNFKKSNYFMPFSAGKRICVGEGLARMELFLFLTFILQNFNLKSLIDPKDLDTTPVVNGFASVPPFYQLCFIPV

Cytochrome P450 2C9 = Cytochrome P450 2C9 (Homo sapiens, UniProt P11712); assay: Inhibition of CYP2C9 using recombinant human CYP enzyme at a single time point by LC-MS/MS analysis
Chain of Cytochrome P450 2C9 (P11712 whole entry): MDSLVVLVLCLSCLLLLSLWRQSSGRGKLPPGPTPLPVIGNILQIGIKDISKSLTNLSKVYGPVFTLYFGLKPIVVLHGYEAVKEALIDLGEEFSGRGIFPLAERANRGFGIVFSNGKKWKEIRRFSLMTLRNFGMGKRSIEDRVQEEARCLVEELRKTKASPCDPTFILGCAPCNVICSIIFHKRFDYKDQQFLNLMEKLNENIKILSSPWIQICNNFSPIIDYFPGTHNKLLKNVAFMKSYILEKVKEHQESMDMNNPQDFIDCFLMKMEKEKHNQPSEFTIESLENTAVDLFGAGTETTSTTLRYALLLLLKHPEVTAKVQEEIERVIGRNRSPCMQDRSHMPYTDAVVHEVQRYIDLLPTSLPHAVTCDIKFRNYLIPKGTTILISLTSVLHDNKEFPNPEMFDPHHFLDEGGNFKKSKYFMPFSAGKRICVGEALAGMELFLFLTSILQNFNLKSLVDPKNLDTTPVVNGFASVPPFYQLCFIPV

Cytochrome P450 1A2 = biological target: T6, Cytochrome P450 1A2 (Homo sapiens, UniProt P05177); assay: Inhibition of CYP1A2 using recombinant human CYP enzyme at a single time point by LC-MS/MS analysis
T6 sequence (P05177 whole entry): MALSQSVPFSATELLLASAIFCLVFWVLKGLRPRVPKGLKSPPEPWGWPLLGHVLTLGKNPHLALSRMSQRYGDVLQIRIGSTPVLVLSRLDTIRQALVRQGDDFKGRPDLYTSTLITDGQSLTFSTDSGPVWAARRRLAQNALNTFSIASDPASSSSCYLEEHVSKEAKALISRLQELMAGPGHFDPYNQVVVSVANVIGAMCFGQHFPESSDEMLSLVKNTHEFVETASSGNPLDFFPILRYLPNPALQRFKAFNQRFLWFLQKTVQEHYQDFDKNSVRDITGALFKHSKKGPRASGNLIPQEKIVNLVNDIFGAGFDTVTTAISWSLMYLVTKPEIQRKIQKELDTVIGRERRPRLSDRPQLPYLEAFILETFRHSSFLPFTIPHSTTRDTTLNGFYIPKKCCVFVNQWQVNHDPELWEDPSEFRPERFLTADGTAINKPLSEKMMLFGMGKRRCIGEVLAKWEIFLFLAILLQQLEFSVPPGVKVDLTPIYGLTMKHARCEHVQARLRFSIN

Cytochrome P450 2D6 = Cytochrome P450 2D6 (Homo sapiens, UniProt P10635); assay: Inhibition of CYP2D6 using recombinant human CYP enzyme at a single time point by LC-MS/MS analysis
Chain of Cytochrome P450 2D6 (P10635 whole entry): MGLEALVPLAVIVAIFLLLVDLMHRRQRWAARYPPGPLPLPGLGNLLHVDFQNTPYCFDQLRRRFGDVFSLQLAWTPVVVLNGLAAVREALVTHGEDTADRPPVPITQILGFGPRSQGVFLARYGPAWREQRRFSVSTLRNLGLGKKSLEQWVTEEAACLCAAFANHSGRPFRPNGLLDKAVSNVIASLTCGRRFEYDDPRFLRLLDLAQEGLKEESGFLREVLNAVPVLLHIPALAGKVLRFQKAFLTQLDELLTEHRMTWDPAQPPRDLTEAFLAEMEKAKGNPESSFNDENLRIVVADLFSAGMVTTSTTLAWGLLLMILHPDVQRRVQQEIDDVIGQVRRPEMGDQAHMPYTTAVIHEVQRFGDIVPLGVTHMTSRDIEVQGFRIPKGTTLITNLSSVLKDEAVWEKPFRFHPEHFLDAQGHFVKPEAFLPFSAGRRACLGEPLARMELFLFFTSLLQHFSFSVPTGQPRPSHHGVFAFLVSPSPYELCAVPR

[5] = Intrinsic clearance in human liver microsomes at 1 uM by LC-MS/MS analysis; details: read-out: CLH
Cytochrome P450 3A4 = Cytochrome P450 3A4 (Homo sapiens, UniProt P08684); assay: Inhibition of CYP3A4 using recombinant human CYP enzyme at a single time point by LC-MS/MS analysis
Chain of Cytochrome P450 3A4 (P08684 whole entry): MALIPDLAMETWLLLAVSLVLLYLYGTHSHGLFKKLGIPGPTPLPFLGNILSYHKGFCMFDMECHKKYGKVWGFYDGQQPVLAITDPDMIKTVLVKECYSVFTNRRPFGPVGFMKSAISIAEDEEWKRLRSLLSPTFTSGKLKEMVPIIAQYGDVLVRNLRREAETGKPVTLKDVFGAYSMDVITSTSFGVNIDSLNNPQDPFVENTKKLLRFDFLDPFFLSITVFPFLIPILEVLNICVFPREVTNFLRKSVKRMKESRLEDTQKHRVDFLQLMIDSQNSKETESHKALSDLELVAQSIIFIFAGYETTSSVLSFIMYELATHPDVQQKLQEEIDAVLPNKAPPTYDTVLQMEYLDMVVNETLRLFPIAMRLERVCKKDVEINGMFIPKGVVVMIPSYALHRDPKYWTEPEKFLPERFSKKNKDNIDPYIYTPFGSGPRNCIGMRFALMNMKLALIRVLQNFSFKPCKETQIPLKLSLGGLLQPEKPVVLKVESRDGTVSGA

Molecule `O=C1CCc2cc(-c3cccnc3)cc3c2N1CC3` has a half-life [1] of 9 min.
With `CCC(=O)N1CCc2cc(-c3cccnc3)ccc21` the inhibition [2] was 66%, the inhibition at 2 µM (CYP17) was < 7% and the inhibition at 0.5 µM (CYP19) was < 7%. For the same molecule, the inhibition (CYP11B1) was 0.8%.
For `O=C(CCCl)N1CCc2cc(-c3cccnc3)ccc21`, the inhibition [2] was 7%, the IC50 [3] was > 5 µM and the inhibition (CYP11B1) was 6%. For the same molecule, the IC50 [4] was > 5 µM.
For `COc1ccc(C(=O)N2CCc3cc(-c4cccnc4)ccc32)cc1`, the inhibition [2] was 26%, the inhibition (CYP11B1) was 1.6% and the IC50 [4] was > 5 µM.
In the case of `O=C(Cc1ccccc1)N1CCc2cc(-c3cccnc3)ccc21`, the inhibition [2] is reported as 2.2%, the IC50 [3] is reported as > 5 µM and the inhibition (CYP11B1) is reported as 26%. For the same molecule, the IC50 [4] was 1.52 µM.
For `CCC(=O)N1CCc2cc(-c3cncc4ccccc34)ccc21`, the IC50 (Cytochrome P450 2C19) was > 50 µM, the IC50 (Cytochrome P450 2C9) was > 50 µM and the IC50 (Cytochrome P450 1A2) was > 50 µM. For the same molecule, the IC50 (Cytochrome P450 2D6) was > 50 µM, the inhibition [2] was 100% and the inhibition at 2 µM (CYP17) was < 7%. For the same molecule, the half-life [1] was 15 min, the inhibition at 0.5 µM (CYP19) was < 7% and the microsomal CLint [5] was 91 µL/min/mg. The inhibition (CYP11B1) was 39% and the IC50 (Cytochrome P450 3A4) was > 50 µM.
In the case of `O=C(C1CC1)N1CCc2cc(-c3cncc4ccccc34)ccc21`, the inhibition [2] is reported as 98%, the inhibition at 2 µM (CYP17) is reported as < 7% and the IC50 [3] is reported as 0.03 µM. For the same molecule, the inhibition at 0.5 µM (CYP19) was < 7%, the inhibition (CYP11B1) was 29% and the IC50 [4] was 3.72 µM.
For `CC(C)C(=O)N1CCc2cc(-c3cncc4ccccc34)ccc21`, the inhibition [2] was 90%, the inhibition at 2 µM (CYP17) was < 7% and the IC50 [3] was 0.152 µM. For the same molecule, the inhibition at 0.5 µM (CYP19) was < 7%, the inhibition (CYP11B1) was 11% and the IC50 [4] was 6.09 µM.
For `CC(=O)N1CCc2cc(-c3cncc(F)c3)ccc21`, the inhibition [2] was 93%, the inhibition at 2 µM (CYP17) was < 7% and the IC50 [3] was 0.061 µM. For the same molecule, the inhibition at 0.5 µM (CYP19) was < 7%, the inhibition (CYP11B1) was 11% and the IC50 [4] was 6.81 µM.
With `COc1cncc(-c2ccc3c(c2)CCN3C(C)=O)c1` the inhibition [2] was 100%, the inhibition at 2 µM (CYP17) was < 7% and the inhibition at 0.5 µM (CYP19) was < 7%. The inhibition (CYP11B1) was 48%.
In the case of `CC(=O)N1CCc2cc(-c3cnccc3C)ccc21`, the IC50 (Cytochrome P450 2C19) is reported as > 50 µM, the IC50 (Cytochrome P450 2C9) is reported as > 50 µM and the IC50 (Cytochrome P450 1A2) is reported as > 50 µM. The IC50 (Cytochrome P450 2D6) was > 50 µM, the inhibition [2] was 100% and the inhibition at 2 µM (CYP17) was < 7%. For the same molecule, the half-life [1] was 17 min, the inhibition at 0.5 µM (CYP19) was < 7% and the microsomal CLint [5] was 81 µL/min/mg. For the same molecule, the inhibition (CYP11B1) was 70% and the IC50 (Cytochrome P450 3A4) was > 50 µM.
In the case of `CC(=O)n1ccc2cc(-c3cccnc3)ccc21`, the inhibition [2] is reported as 98%, the inhibition at 2 µM (CYP17) is reported as < 7% and the inhibition at 0.5 µM (CYP19) is reported as < 7%. It also gave an inhibition (CYP11B1) of 25%.
